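Values below derive from 48-hour exposures of cells grown in 96-well plates, with endpoints linearly interpolated between the two concentrations bracketing the appropriate inhibition level. Definition used: TGI = concentration required for complete inhibition of growth.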
What was measured:
Experiment in all cases: NCI-60 cell line screen, 48 h
786-0 renal = test system: 786-0 renal
A498 renal = test system: A498 renal
A549 NSCLC = test system: A549 NSCLC
ACHN renal = test system: ACHN renal
BT-549 breast = test system: BT-549 breast
CAKI-1 renal = test system: CAKI-1 renal
CCRF-CEM leukemia = test system: CCRF-CEM leukemia
COLO 205 colon = test system: COLO 205 colon
DU-145 prostate = test system: DU-145 prostate
EKVX NSCLC = test system: EKVX NSCLC
HCC-2998 colon = test system: HCC-2998 colon
HCT-116 colon = test system: HCT-116 colon
HCT-15 colon = test system: HCT-15 colon
HL-60(TB) leukemia = test system: HL-60(TB) leukemia
HOP-62 NSCLC = test system: HOP-62 NSCLC
HOP-92 NSCLC = test system: HOP-92 NSCLC
HS 578T breast = test system: HS 578T breast
HT29 colon = test system: HT29 colon
K-562 leukemia = test system: K-562 leukemia
KM12 colon = test system: KM12 colon
LOX IMVI melanoma = test system: LOX IMVI melanoma
M14 melanoma = test system: M14 melanoma
MALME-3M melanoma = test system: MALME-3M melanoma
MCF7 breast = test system: MCF7 breast
MDA-MB-231 breast = test system: MDA-MB-231 breast
MDA-MB-435 = test system: MDA-MB-435
MDA-N = test system: MDA-N
MOLT-4 leukemia = test system: MOLT-4 leukemia
NCI-H226 lung = test system: NCI-H226 lung
NCI-H23 lung = test system: NCI-H23 lung
NCI-H460 lung = test system: NCI-H460 lung
NCI-H522 lung = test system: NCI-H522 lung
NCI/ADR-RES ovarian = test system: NCI/ADR-RES ovarian
OVCAR-3 ovarian = test system: OVCAR-3 ovarian
OVCAR-4 ovarian = test system: OVCAR-4 ovarian
OVCAR-5 ovarian = test system: OVCAR-5 ovarian
OVCAR-8 ovarian = test system: OVCAR-8 ovarian
RPMI-8226 leukemia = test system: RPMI-8226 leukemia
RXF 393 renal = test system: RXF 393 renal
SF-268 CNS = test system: SF-268 CNS
SF-295 CNS = test system: SF-295 CNS
SF-539 CNS = test system: SF-539 CNS
SK-MEL-2 melanoma = test system: SK-MEL-2 melanoma
SK-MEL-28 melanoma = test system: SK-MEL-28 melanoma
SK-MEL-5 melanoma = test system: SK-MEL-5 melanoma
SK-OV-3 ovarian = test system: SK-OV-3 ovarian
SN12C renal = test system: SN12C renal
SNB-19 CNS = test system: SNB-19 CNS
SR leukemia = test system: SR leukemia
SW-620 colon = test system: SW-620 colon
T-47D breast = test system: T-47D breast
TK-10 renal = test system: TK-10 renal
U251 CNS = test system: U251 CNS
UACC-257 melanoma = test system: UACC-257 melanoma
UACC-62 melanoma = test system: UACC-62 melanoma
UO-31 renal = test system: UO-31 renal
IGROV1 ovarian = test system: IGROV1 ovarian
PC-3 prostate = test system: PC-3 prostate
SNB-75 CNS = test system: SNB-75 CNS

## O=C1/C(=C\c2cccc(Oc3ccccc3)c2)SC(c2ccccc2)N1c1ccccc1Cl (configuration not stated)
786-0 renal
  TGI: > 100 µM
A498 renal
  TGI: > 100 µM
A549 NSCLC
  TGI: > 100 µM
ACHN renal
  TGI: > 100 µM
BT-549 breast
  TGI: 96.6 µM
CAKI-1 renal
  TGI: > 100 µM
CCRF-CEM leukemia
  TGI: 38.4 µM
COLO 205 colon
  TGI: 49 µM
DU-145 prostate
  TGI: > 100 µM
EKVX NSCLC
  TGI: > 100 µM
HCC-2998 colon
  TGI: 78.9 µM
HCT-116 colon
  TGI: 50.7 µM
HCT-15 colon
  TGI: > 100 µM
HL-60(TB) leukemia
  TGI: > 100 µM
HOP-62 NSCLC
  TGI: > 100 µM
HOP-92 NSCLC
  TGI: 57.5 µM
HS 578T breast
  TGI: 60.2 µM
HT29 colon
  TGI: 49.9 µM
K-562 leukemia
  TGI: > 100 µM
KM12 colon
  TGI: 98.8 µM
LOX IMVI melanoma
  TGI: 75.8 µM
M14 melanoma
  TGI: > 100 µM
MALME-3M melanoma
  TGI: > 100 µM
MCF7 breast
  TGI: > 100 µM
MDA-MB-231 breast
  TGI: > 100 µM
MDA-MB-435
  TGI: 68 µM
MDA-N
  TGI: 54.2 µM
MOLT-4 leukemia
  TGI: > 100 µM
NCI-H226 lung
  TGI: > 100 µM
NCI-H23 lung
  TGI: 69.7 µM
NCI-H460 lung
  TGI: > 100 µM
NCI-H522 lung
  TGI: 48.5 µM
NCI/ADR-RES ovarian
  TGI: > 100 µM
OVCAR-3 ovarian
  TGI: > 100 µM
OVCAR-4 ovarian
  TGI: > 100 µM
OVCAR-5 ovarian
  TGI: > 100 µM
OVCAR-8 ovarian
  TGI: 79.9 µM
RPMI-8226 leukemia
  TGI: 55.3 µM
RXF 393 renal
  TGI: 78.5 µM
SF-268 CNS
  TGI: > 100 µM
SF-295 CNS
  TGI: > 100 µM
SF-539 CNS
  TGI: 39 µM
SK-MEL-2 melanoma
  TGI: 92.4 µM
SK-MEL-28 melanoma
  TGI: > 100 µM
SK-MEL-5 melanoma
  TGI: 29.8 µM
SK-OV-3 ovarian
  TGI: > 100 µM
SN12C renal
  TGI: 96.9 µM
SNB-19 CNS
  TGI: 76.4 µM
SR leukemia
  TGI: > 100 µM
SW-620 colon
  TGI: > 100 µM
T-47D breast
  TGI: > 100 µM
TK-10 renal
  TGI: > 100 µM
U251 CNS
  TGI: 78.5 µM
UACC-257 melanoma
  TGI: 85.8 µM
UACC-62 melanoma
  TGI: > 100 µM
UO-31 renal
  TGI: > 100 µM

## Cc1ccc(N=C2SC(=S)N(CCC[N+](C)(C)C)C2=Nc2ccc(C)cc2)cc1
786-0 renal
  TGI: 30.3 µM
A498 renal
  TGI: 40.7 µM
A549 NSCLC
  TGI: 33.8 µM
ACHN renal
  TGI: 30.1 µM
BT-549 breast
  TGI: 15.4 µM
CCRF-CEM leukemia
  TGI: 58 µM
COLO 205 colon
  TGI: 87.6 µM
EKVX NSCLC
  TGI: 38.5 µM
HCC-2998 colon
  TGI: 39.6 µM
HCT-116 colon
  TGI: 25.4 µM
HCT-15 colon
  TGI: 31.4 µM
HL-60(TB) leukemia
  TGI: 5.86 µM
HOP-62 NSCLC
  TGI: 52.7 µM
HOP-92 NSCLC
  TGI: 31.6 µM
HS 578T breast
  TGI: 24.6 µM
HT29 colon
  TGI: 32.9 µM
IGROV1 ovarian
  TGI: 26.6 µM
K-562 leukemia
  TGI: 32.9 µM
KM12 colon
  TGI: 50.1 µM
M14 melanoma
  TGI: 46.1 µM
MALME-3M melanoma
  TGI: 41.9 µM
MCF7 breast
  TGI: 48.3 µM
MDA-MB-231 breast
  TGI: 32.3 µM
MDA-N
  TGI: 28.5 µM
MOLT-4 leukemia
  TGI: 37.8 µM
NCI-H226 lung
  TGI: 47 µM
NCI-H23 lung
  TGI: 32.7 µM
NCI-H460 lung
  TGI: 36.3 µM
OVCAR-5 ovarian
  TGI: 29.7 µM
OVCAR-8 ovarian
  TGI: 38.8 µM
PC-3 prostate
  TGI: 28.3 µM
RPMI-8226 leukemia
  TGI: 32 µM
RXF 393 renal
  TGI: 18 µM
SK-MEL-2 melanoma
  TGI: 35.9 µM
SK-MEL-28 melanoma
  TGI: 23.7 µM
SK-MEL-5 melanoma
  TGI: 27.5 µM
SN12C renal
  TGI: 29.5 µM
SNB-19 CNS
  TGI: 27.7 µM
SNB-75 CNS
  TGI: 22.6 µM
SR leukemia
  TGI: 27 µM
SW-620 colon
  TGI: 41.4 µM
T-47D breast
  TGI: 18.7 µM
TK-10 renal
  TGI: 36.8 µM
U251 CNS
  TGI: 26.6 µM
UACC-257 melanoma
  TGI: 32 µM
UACC-62 melanoma
  TGI: 22.3 µM
UO-31 renal
  TGI: 37.8 µM

## CC(=O)NNc1nc(C)c(C(=O)/C=C/C=C/c2ccccc2)s1
786-0 renal
  TGI: > 100 µM
A498 renal
  TGI: > 100 µM
ACHN renal
  TGI: > 100 µM
BT-549 breast
  TGI: > 100 µM
CAKI-1 renal
  TGI: > 100 µM
CCRF-CEM leukemia
  TGI: > 100 µM
COLO 205 colon
  TGI: > 100 µM
DU-145 prostate
  TGI: > 100 µM
EKVX NSCLC
  TGI: > 100 µM
HCC-2998 colon
  TGI: > 100 µM
HCT-116 colon
  TGI: > 100 µM
HCT-15 colon
  TGI: > 100 µM
HL-60(TB) leukemia
  TGI: > 100 µM
HOP-62 NSCLC
  TGI: > 100 µM
HOP-92 NSCLC
  TGI: > 100 µM
HS 578T breast
  TGI: > 100 µM
HT29 colon
  TGI: > 100 µM
IGROV1 ovarian
  TGI: > 100 µM
KM12 colon
  TGI: > 100 µM
LOX IMVI melanoma
  TGI: > 100 µM
M14 melanoma
  TGI: > 100 µM
MALME-3M melanoma
  TGI: > 100 µM
MCF7 breast
  TGI: > 100 µM
MDA-MB-231 breast
  TGI: > 100 µM
MDA-MB-435
  TGI: > 100 µM
MDA-N
  TGI: > 100 µM
MOLT-4 leukemia
  TGI: > 100 µM
NCI-H226 lung
  TGI: > 100 µM
NCI-H23 lung
  TGI: > 100 µM
NCI-H460 lung
  TGI: > 100 µM
NCI-H522 lung
  TGI: > 100 µM
NCI/ADR-RES ovarian
  TGI: > 100 µM
OVCAR-3 ovarian
  TGI: > 100 µM
OVCAR-4 ovarian
  TGI: > 100 µM
OVCAR-5 ovarian
  TGI: > 100 µM
OVCAR-8 ovarian
  TGI: > 100 µM
RPMI-8226 leukemia
  TGI: > 100 µM
SF-268 CNS
  TGI: > 100 µM
SF-295 CNS
  TGI: > 100 µM
SF-539 CNS
  TGI: > 100 µM
SK-MEL-28 melanoma
  TGI: > 100 µM
SK-MEL-5 melanoma
  TGI: > 100 µM
SK-OV-3 ovarian
  TGI: > 100 µM
SN12C renal
  TGI: > 100 µM
SNB-19 CNS
  TGI: > 100 µM
SNB-75 CNS
  TGI: > 100 µM
SR leukemia
  TGI: > 100 µM
SW-620 colon
  TGI: > 100 µM
T-47D breast
  TGI: > 100 µM
TK-10 renal
  TGI: > 100 µM
U251 CNS
  TGI: > 100 µM
UACC-257 melanoma
  TGI: > 100 µM
UACC-62 melanoma
  TGI: > 100 µM
UO-31 renal
  TGI: > 100 µM

Source: PubChem BioAssay (NCI)
